Experimental findings from article PMC5677544 (Analytical chemistry, 2017) are described below.

Like-named read-outs stand apart in the source and are kept apart here.

Experiment in all cases: ESI-MS titration
Common to all, as to format: binding

The target of test [1] is T1, β-2-microglobulin (β2m) (Homo sapiens, UniProt P61769).
The target in test [2] is T1, β-2-microglobulin (β2m). The source holds these as a separate data set.
Test [3] has as its target T1, β-2-microglobulin (β2m). This is another data set of the same source.

T1 sequence (P61769 21-119): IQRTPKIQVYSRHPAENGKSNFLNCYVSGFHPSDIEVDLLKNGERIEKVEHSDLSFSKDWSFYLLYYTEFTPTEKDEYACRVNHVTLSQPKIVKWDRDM

For the compound `C[C@H]1c2cccc(O)c2C(=O)C2=C(O)[C@]3(O)C(=O)C(C(N)=O)=C(O)[C@@H](N(C)C)[C@@H]3[C@@H](O)[C@@H]21` [doxycycline], binding in test [1] was characterised by a dissociation constant (Kd) of 200 ± 20 µM.

In the case of `CO[C@H]1/C=C/O[C@@]2(C)Oc3c(C)c(O)c4c(O)c(cc(O)c4c3C2=O)NC(=O)/C(C)=C\C=C\[C@H](C)[C@H](O)[C@@H](C)[C@@H](O)[C@@H](C)[C@H](OC(C)=O)[C@@H]1C` [rifamycin SV], the affinity in test [2], expressed as Kd, was 250 ± 25 µM.

In test [3], `Cc1ccc(C(=O)Nc2ccc(S(=O)(=O)O)c3cc(S(=O)(=O)O)cc(S(=O)(=O)O)c23)cc1NC(=O)c1cccc(NC(=O)Nc2cccc(C(=O)Nc3cc(C(=O)Nc4ccc(S(=O)(=O)O)c5cc(S(=O)(=O)O)cc(S(=O)(=O)O)c45)ccc3C)c2)c1` [suramin] showed a Kd of 40 ± 2 µM.

What is called Kd is a measure of binding affinity in units of concentration. High values mean lower affinity, low ones higher affinity.
